From ChEMBL document CHEMBL1201862, “PubChem BioAssay data set” (2004)
Calls of active or inactive are those of the source.

Experiments:
[1] = inhibitors of SNCA 5'UTR-driven reporter translation, confirmation, H4 neuroglioma cells, luminescence (AID 1988); type: functional, cell-based
[2] = inhibitors of firefly luciferase expression or activity, dose response, H4 neuroglioma cells, luminescence (AID 1990); type: functional, cell-based
[3] = molecular target: T1, Ubiquitin-conjugating enzyme E2 N (Homo sapiens, UniProt P61088); type: functional;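 note: Dose-response confirmation in a TR-FRET assay detecting UBC13-driven polyubiquitin chain formation, inhibition measured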
T1 sequence (P61088 whole entry): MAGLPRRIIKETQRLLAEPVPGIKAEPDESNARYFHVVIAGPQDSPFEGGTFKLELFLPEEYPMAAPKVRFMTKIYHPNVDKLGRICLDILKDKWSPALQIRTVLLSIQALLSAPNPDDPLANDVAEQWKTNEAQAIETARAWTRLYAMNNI

[4] = Luminescence Cell-Based Dose Response HTS to Identify Inhibitors of 5'UTR Stem-Loop Driven Prion Protein mRNA Translation in H4 Neuroglioblastoma Cells. [Related pubchem assays: 1827 (Project Summary), 1813 (Primary HTS)]; type: functional
[5] = molecular target: T2, Protein RecA (Mycobacterium tuberculosis, UniProt P9WHJ3); assay: Fluorescence Cell-Free Homogeneous Dose Retest to Identify Inhibitors of RecA-Intein Splicing Activity. [Related pubchem assays (depositor defined):AID2097, AID2223, AID489010, AID492950]; type: functional
T2 sequence (P9WHJ3 whole entry): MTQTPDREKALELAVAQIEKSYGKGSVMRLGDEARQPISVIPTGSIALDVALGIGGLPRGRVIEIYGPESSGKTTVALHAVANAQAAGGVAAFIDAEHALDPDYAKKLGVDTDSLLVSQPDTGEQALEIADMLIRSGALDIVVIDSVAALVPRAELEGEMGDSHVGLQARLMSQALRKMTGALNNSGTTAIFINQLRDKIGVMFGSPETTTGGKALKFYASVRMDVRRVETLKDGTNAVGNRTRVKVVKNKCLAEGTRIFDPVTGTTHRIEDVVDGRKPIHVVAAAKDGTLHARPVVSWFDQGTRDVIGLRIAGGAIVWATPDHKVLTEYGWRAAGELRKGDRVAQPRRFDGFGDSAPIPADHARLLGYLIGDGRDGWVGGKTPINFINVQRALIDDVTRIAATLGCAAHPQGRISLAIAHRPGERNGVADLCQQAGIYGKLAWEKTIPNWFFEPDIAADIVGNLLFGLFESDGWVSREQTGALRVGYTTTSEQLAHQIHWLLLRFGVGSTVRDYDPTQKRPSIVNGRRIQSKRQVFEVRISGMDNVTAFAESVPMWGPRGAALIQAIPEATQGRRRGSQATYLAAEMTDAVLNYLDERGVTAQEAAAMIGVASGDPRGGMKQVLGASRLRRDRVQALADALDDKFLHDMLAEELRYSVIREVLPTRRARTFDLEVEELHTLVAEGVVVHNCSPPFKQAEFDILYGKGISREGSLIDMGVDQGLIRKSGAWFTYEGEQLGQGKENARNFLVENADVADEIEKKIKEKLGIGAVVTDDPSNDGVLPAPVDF

[6] = molecular target: Genome polyprotein (dengue virus type 2, UniProt P29990); assay: Dengue-2 NS5 methyltransferase inhibitors, primary screen, biochemical, confirmation dose response (AID 588689); type: functional
Sequence of Genome polyprotein (P29990 2492-3391 limits assumed): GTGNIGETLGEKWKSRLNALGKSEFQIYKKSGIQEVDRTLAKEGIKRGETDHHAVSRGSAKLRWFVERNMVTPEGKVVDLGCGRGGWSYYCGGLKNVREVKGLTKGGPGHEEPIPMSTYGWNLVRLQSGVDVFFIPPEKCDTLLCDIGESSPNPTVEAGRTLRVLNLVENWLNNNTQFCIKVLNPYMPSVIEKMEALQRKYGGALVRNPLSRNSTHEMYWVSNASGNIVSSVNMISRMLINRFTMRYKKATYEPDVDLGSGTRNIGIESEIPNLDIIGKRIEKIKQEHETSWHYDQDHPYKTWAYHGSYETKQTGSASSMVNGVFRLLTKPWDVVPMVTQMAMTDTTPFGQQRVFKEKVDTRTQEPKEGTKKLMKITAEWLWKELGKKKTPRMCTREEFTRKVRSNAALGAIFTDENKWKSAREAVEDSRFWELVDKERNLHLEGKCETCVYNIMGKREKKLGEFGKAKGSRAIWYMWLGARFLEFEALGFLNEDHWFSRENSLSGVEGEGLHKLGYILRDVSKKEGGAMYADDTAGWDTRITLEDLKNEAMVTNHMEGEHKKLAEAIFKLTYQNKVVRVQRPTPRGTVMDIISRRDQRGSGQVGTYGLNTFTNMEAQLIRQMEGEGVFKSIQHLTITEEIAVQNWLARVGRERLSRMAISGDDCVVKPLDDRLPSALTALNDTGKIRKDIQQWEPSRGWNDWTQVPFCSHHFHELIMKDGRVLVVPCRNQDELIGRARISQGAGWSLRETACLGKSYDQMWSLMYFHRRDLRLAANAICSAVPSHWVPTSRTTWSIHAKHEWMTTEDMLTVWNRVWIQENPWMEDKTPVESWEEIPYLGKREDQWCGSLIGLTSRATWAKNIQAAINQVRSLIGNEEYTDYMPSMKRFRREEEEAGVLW

[7] = molecular target: T3, Replicative DNA helicase DnaB (Mycobacterium tuberculosis, UniProt P9WMR3); assay: DnaB intein splicing inhibitors, dose response, biochemical, cell-free fluorescence (AID 449749); type: functional
T3 sequence (P9WMR3 whole entry): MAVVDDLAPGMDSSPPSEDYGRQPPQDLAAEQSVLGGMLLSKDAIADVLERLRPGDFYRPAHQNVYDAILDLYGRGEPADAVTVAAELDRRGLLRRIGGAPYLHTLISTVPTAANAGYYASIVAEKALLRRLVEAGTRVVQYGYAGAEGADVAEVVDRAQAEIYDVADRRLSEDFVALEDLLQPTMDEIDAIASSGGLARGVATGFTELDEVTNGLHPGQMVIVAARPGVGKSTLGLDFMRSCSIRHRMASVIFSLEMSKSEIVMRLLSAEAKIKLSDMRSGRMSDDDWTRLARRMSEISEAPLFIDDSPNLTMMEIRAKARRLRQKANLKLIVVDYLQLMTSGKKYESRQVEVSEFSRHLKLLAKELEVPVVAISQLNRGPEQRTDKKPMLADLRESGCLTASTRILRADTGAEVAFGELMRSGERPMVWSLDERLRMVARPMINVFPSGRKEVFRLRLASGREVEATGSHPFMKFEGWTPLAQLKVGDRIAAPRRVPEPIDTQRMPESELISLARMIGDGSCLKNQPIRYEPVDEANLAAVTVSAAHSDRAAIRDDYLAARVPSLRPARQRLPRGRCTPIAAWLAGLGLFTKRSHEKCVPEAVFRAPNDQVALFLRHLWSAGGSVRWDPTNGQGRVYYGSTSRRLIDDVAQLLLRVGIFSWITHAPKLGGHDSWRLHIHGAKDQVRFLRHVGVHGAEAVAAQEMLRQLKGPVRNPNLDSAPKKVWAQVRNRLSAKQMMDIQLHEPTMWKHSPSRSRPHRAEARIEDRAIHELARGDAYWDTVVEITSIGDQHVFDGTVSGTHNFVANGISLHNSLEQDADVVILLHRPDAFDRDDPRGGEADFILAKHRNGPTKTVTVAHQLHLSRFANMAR

[8] = molecular target: T4, Fatty acid synthase (Homo sapiens, UniProt P49327); assay: FAS thioesterase domain inhibitors, dose response, biochemical, kinetic fluorescence intensity (AID 624326); type: functional;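 note: rate of fluorescence rise from hydrolysis of a fluorogenic O-methyl fluorescein ester substrate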
T4 sequence (P49327 whole entry, the tested form may be a part): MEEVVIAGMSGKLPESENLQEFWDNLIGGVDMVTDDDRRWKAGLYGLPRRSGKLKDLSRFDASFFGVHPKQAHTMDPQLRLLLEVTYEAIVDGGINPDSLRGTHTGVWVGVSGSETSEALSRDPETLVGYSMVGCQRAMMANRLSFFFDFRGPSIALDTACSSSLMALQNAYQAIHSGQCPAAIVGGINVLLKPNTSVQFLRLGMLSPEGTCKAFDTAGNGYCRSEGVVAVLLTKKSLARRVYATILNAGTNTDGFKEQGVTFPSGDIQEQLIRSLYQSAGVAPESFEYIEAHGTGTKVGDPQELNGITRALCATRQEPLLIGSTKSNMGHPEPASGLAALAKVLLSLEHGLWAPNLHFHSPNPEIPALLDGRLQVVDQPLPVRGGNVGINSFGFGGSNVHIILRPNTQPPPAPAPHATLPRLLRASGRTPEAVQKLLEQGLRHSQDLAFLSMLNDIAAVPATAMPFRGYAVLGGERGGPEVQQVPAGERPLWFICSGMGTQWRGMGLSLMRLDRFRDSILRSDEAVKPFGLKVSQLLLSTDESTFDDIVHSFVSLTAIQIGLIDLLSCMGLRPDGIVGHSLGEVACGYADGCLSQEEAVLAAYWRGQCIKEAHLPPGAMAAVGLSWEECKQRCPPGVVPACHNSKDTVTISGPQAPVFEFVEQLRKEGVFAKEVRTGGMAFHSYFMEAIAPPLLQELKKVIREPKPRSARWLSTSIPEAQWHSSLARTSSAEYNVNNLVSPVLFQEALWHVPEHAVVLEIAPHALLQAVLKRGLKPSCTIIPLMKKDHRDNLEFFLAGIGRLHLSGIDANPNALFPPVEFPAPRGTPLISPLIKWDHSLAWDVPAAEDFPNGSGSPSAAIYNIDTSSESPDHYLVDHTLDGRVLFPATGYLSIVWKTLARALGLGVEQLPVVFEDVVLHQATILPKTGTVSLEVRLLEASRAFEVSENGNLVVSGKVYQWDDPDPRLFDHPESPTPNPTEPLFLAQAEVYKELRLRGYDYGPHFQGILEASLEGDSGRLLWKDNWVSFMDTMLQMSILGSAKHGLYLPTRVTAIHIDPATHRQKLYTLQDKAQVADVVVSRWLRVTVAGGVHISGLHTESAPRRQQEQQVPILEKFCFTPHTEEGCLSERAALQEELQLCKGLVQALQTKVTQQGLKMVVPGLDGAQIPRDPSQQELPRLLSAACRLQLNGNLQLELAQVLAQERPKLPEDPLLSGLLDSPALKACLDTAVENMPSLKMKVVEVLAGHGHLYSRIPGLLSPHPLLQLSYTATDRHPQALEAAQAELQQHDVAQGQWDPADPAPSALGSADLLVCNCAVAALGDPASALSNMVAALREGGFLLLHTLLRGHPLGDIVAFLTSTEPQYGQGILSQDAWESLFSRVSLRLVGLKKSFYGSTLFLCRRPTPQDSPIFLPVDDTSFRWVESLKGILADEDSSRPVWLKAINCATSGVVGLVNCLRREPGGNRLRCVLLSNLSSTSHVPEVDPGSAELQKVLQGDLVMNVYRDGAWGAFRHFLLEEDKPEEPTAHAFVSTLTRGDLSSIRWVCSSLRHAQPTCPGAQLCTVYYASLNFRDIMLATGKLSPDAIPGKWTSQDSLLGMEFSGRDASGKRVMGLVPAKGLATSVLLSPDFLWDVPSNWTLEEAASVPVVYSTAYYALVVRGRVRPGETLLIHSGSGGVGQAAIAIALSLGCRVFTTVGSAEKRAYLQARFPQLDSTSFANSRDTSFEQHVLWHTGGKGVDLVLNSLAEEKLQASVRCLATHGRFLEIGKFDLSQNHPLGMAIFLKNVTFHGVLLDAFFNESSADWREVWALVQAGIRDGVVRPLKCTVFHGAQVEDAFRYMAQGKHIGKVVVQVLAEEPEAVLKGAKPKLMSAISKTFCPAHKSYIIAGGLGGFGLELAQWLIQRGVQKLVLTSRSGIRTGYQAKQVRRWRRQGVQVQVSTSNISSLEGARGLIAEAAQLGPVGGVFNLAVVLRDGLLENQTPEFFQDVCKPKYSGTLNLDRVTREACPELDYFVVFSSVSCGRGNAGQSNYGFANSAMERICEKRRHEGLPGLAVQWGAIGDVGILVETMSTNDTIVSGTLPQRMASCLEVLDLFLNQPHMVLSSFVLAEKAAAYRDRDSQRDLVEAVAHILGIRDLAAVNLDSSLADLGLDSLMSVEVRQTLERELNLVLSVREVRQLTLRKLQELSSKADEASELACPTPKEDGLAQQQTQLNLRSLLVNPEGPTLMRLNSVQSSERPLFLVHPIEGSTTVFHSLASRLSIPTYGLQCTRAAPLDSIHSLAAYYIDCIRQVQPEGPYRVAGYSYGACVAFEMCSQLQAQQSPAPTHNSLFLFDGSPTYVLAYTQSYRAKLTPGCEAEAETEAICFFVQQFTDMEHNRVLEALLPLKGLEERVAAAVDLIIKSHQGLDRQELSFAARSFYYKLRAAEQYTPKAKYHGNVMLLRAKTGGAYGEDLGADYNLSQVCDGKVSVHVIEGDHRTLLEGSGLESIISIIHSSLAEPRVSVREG

[9] = molecular target: T4, Fatty acid synthase; assay: FAS thioesterase domain inhibitors, dose response, biochemical, endpoint fluorescence intensity, uHTS hits (AID 624327); type: functional;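 note: fluorescence from hydrolysis of an O-methyl fluorescein acyl ester substrate by the enzyme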
[10] = C. albicans growth with fluconazole, confirmation, fluorescence, retest (AID 2467); type: functional, cell-based
[11] = inhibitors of intracellular T. cruzi replication, confirmation, NIH3T3 host cells, beta-gal luminescence (AID 2044); type: functional, cell-based;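 note: intracellular parasites grown in NIH/3T3 mouse fibroblasts as host cells; luminescent beta-galactosidase reporter signal from transgenic T. cruzi replicating inside host cells; inhibitors lower the luminescence signal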
[12] = cytotoxicity toward NIH3T3 fibroblasts, dose response, counter-screen, cell-based, ATP luminescence, mouse fibroblasts (AID 2010); type: functional;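 note: cells exposed to compound for about 90 hours before reading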
[13] = NIH-3T3 fibroblast cytotoxicity, dose response, cytotoxicity control, cell-based, fluorescence, Alamar Blue, secondary assay (AID 2327); type: functional;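 note: NIH-3T3 mouse fibroblasts cultured with fluconazole at 8 µg/mL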
[14] = molecular target: T5, Corticotropin-releasing factor receptor 2/Corticotropin-releasing factor-binding protein (Homo sapiens, UniProt P24387+Q13324); assay: activators of CRF receptor 2 with binding protein – uHTS hits, confirmation (AID 602473); type: functional; details: read-out: EC50_Mean
T5 sequence (Q13324 whole entry): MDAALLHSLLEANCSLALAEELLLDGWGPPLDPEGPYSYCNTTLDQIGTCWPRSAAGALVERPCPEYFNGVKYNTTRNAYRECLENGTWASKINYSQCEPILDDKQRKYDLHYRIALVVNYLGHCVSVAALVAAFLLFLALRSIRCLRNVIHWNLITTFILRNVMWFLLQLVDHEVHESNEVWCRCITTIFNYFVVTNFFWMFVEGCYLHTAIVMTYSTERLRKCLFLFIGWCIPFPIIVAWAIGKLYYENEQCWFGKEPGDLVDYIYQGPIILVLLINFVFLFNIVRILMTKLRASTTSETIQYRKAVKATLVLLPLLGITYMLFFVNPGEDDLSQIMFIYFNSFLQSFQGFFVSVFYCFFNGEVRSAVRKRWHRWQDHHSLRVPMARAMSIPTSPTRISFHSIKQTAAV
T5 sequence (P24387 whole entry): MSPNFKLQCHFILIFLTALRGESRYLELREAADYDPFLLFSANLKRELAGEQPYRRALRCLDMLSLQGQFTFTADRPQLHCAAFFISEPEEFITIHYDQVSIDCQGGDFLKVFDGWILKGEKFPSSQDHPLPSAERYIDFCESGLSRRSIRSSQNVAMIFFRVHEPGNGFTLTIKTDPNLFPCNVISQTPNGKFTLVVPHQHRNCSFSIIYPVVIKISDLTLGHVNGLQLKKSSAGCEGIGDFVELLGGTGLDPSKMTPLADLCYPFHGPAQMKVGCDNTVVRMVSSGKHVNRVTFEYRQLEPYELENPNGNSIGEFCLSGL

[15] = Shn3 3'UTR reporter inhibitors, dose response, cell-based, Clone20 osteoblasts, firefly luciferase, cherry-picked (AID 624132); type: functional;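 note: firefly luciferase luminescence from reporter carrying the Shn3 3'UTR in osteoblasts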
[16] = Luminescence Cell-Based Dose Response HTS to Identify Activators of Luciferase Translation or Activity in H4 […] Cells. [Related pubchem assays: 1829 (Project Summary), 1814 (Primary HTS)]; type: functional
[17] = test system: H4; assay: Luminescence Cell-Based Dose Response HTS to Identify Activators of 5'UTR Stem-Loop Driven Prion Protein mRNA Translation in H4 Neuroglioblastoma Cells. [Related pubchem assays: 1829 (Project Summary), 1814 (Primary HTS)]; type: functional; details: Homo sapiens
[18] = molecular target: T6, Heat shock factor protein 1 (Mus musculus, UniProt P38532); assay: inhibition of MG132-induced HSE-luciferase signal, confirmation, cell-based, NIH3T3, luminescence, dose retest (AID 2382); type: functional;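 note: NIH3T3 fibroblasts with HSF1-driven luciferase reporter stressed by proteasome inhibitor MG132; luminescence from HSF1-driven luciferase expression after 8 hours of MG132 stress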
T6 sequence (P38532 whole entry): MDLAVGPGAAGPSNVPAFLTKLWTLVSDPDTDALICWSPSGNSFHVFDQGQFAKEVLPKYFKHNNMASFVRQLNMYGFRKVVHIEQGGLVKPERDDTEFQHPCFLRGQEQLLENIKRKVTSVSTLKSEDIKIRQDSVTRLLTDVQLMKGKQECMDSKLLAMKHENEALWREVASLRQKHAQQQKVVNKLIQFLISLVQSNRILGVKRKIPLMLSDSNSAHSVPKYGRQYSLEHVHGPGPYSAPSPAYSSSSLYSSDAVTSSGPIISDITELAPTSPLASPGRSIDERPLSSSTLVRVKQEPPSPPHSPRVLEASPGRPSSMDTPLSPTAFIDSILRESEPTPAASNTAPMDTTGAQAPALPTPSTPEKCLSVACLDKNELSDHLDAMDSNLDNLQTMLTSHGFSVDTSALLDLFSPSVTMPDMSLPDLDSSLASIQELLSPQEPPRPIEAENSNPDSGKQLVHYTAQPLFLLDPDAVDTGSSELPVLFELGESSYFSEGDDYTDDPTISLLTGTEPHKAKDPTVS

[19] = Luminescence Cell-Based Dose Confirmation HTS to Identify Activators of 5'UTR Stem-Loop Driven Alpha-Synuclein mRNA Translation in H4 Neuroglioblastoma Cells. [Related pubchem assays: 1829 (Project Summary), 1814 (Primary HTS)]; type: functional
[20] = Luminescence Cell-Based Dose Retest to Confirm Inhibitors of Cancer Stem Cells. [Related pubchem assays (depositor defined):AID2717, AID2721]; type: functional; details: Homo sapiens

## CCOC(=O)c1cc(-c2ccc(OC)cc2F)nc2c1c(C)nn2CCC#N
[1]
  EC50: 23.3 µM (active)
[2]
  EC50: 17.7 µM (active)
[3]
  IC50: > 20 µM (inactive)
[4]
  EC50: 20.2 µM (active)

## Cc1ccccc1N1C(=O)C(Cl)=C(N2CCOCC2)C1=O
[5]
  EC50: 4.98 µM (active)
[6]
  IC50: 43.7 µM (active)
[7]
  AC50: 13 µM (active)

## Cc1ccc(C(=O)NCCSC(C)(C)C)cc1[N+](=O)[O-]
[8]
  IC50: 8.25 µM (active)
[9]
  IC50: 11.7 µM (active)

## O=C(Nc1cc(S(=O)(=O)N2CCOCC2)ccc1O)c1ccc2c(c1)S(=O)(=O)c1ccccc1C2=O
[6]
  IC50: 49.6 µM (active)

## CC[C@H](C)Cc1cn([C@@H](CCCN=C(NC(=O)OC(C)(C)C)NC(=O)OC(C)(C)C)C(=O)NCCCCCCCCCCC(=O)N2CCN(C(=O)OC(C)(C)C)CC2)nn1
[10]
  EC50: > 38 µM (not active)
[11]
  EC50: 1.04 µM (active)
[3]
  IC50: > 20 µM (inactive)
[12]
  EC50: > 30 µM (not active)
[13]
  EC50: 83.3 µM (inconclusive)

## CC(=O)c1ccc(OCCCC(=O)NNC(=O)c2ccccn2)cc1
[3]
  IC50: > 20 µM (inactive)

## CCNC(=O)c1ccccc1NC(=O)c1cccc(S(=O)(=O)N2CCC(C)CC2)c1
[3]
  IC50: > 20 µM (inactive)

## O=C(O)CCc1ccc(-c2ccc(Br)cc2)n1-c1ccc(O)cc1
[6]
  IC50: > 100 µM (active)

## COc1ccc(C(CC(=O)Nc2cc([N+](=O)[O-])ccc2OC)c2ccccc2)cc1 (stereo unspecified)
[8]
  IC50: 12.5 µM (active)
[9]
  IC50: 12.9 µM (active)

## COc1ccc(C(C2C(=O)CC(C)(C)CC2=O)C2C(=O)CC(C)(C)CC2=O)cc1
[6]
  IC50: 30.4 µM (active)

## Cc1cc(N2CCCCC2)nc(N)n1
[14]
  EC50: 6.28 µM (active)

## Sc1nnc(COc2cccc3ccccc23)n1Cc1ccccc1
[15]
  AC50: 48 µM (active)

## Cc1cc(-n2c(C)cc(C(=O)CSc3nc4ccccc4c(=O)n3Cc3ccco3)c2C)no1
[14]
  EC50: > 53 µM (inactive)

## Cc1cccc(NC(=O)CSc2nc3c(oc4ccccc43)c(=O)n2-c2ccccc2)c1
[8]
  IC50: 51.3 µM (inactive)
[9]
  IC50: 25.6 µM (inactive)

## CCOC(=O)c1ccc(NC(=O)C2C3C=CC(O3)C2C(=O)O)cc1 (stereo unspecified)
[16]
  EC50: > 120 µM (not active)
[17]
  EC50: > 120 µM (not active)
[18]
  EC50: > 195 µM (not active)
[19]
  EC50: > 60 µM (not active)

## O=C1C(Cl)=C(N2CCCC2)C(=O)N1c1ccccc1F
[6]
  IC50: 84.4 µM (active)

## COc1ccc(/C=C2/C(=O)NC(=O)N(c3ccc(C)c(C)c3)C2=O)cc1CN1C(=O)c2ccccc2C1=O
[6]
  IC50: 99.5 µM (active)

## O=C(/C=C/c1cccc([N+](=O)[O-])c1)NCCSCc1ccco1
[8]
  IC50: 10.1 µM (active)
[9]
  IC50: 6.86 µM (active)

## CC(C)(C)C1CCC(CN2C(Nc3ccccc3)=NC[C@@H]2Cc2ccccc2)CC1 (stereo partly specified)
[3]
  IC50: > 20 µM (inactive)
[20]
  AC50: 6.47 µM (active)
